The results in this text go back to US10251395B2, “Substituted furano-/thienocycloalkylamino-2-pyrimidine derivatives and use thereof for controlling undesired plant growth” (Bayer CropScience Aktiengesellschaft, priority 2015, dated 2019).

Assay type in all cases: in vivo
One test concerns Setaria viridis. As to the kind of experiment: Pre-emergence herbicidal effect. The following applies: scored visually after 3 weeks. In outline:
(§1)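 Seeds sown in sandy loam and covered with soil; WP or EC formulations sprayed onto the soil surface as aqueous suspension/emulsion at 600 to 800 L/ha water with 0.2% wetting agent. Greenhouse-grown; damage scored visually after 3 weeks against untreated controls (100% = plants dead, 0% = like control).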

For test [1], the system named is Abutilon theophrasti. As to the kind of experiment: Pre-emergence herbicidal effect. The following applies: scored visually after 3 weeks. In outline: as §1
Test [2] has as its system Amaranthus retroflexus. As to the kind of experiment: Pre-emergence herbicidal effect. The following applies: scored visually after 3 weeks. A digest of the protocol:
as §1

In test [3] the test system is Veronica persica. As to the kind of experiment: Pre-emergence herbicidal effect. The settings on record: scored visually after 3 weeks. In outline:
as §1

For another test, the system named is Polygonum convolvulus. As to the kind of experiment: Pre-emergence herbicidal effect. The following applies: scored visually after 3 weeks. In outline: as §1
In test [4] the test system is Echinochloa crus-galli. The test is described as follows: Pre-emergence herbicidal effect. The settings on record: scored visually after 3 weeks. In outline:
as §1

Test [5] has as its system Stellaria media. The test is described as follows: Pre-emergence herbicidal effect. The following applies: scored visually after 3 weeks. In outline:
as §1

Test [6] has as its system Viola tricolor. As to the kind of experiment: Pre-emergence herbicidal effect. The following applies: scored visually after 3 weeks. In outline: as §1
Test [7] relates to Matricaria inodora. As to the kind of experiment: Pre-emergence herbicidal effect. The following applies: scored visually after 3 weeks. In outline:
as §1

Test [8] concerns Abutilon theophrasti. As to the kind of experiment: Post-emergence herbicidal effect. The settings on record: 320 g/ha, assessed visually after about 3 weeks vs untreated controls. In outline: (§2)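 Greenhouse weeds grown in sandy loam were sprayed at the one-leaf stage, 2–3 weeks after sowing, with WP or EC formulations in 600–800 L/ha water plus 0.2% wetting agent. Damage was scored visually after about 3 weeks as percent activity relative to untreated controls, where 100% means the plants died.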

Test [9] has as its system Amaranthus retroflexus. As to the kind of experiment: Post-emergence herbicidal effect. The settings on record: assessed visually after about 3 weeks vs untreated controls. In outline: as §2
For test [10], the system named is Veronica persica. As to the kind of experiment: Post-emergence herbicidal effect. The settings on record: assessed visually after about 3 weeks vs untreated controls. In outline: as §2
Test [11] concerns Echinochloa crus-galli. As to the kind of experiment: Post-emergence herbicidal effect. The settings on record: assessed visually after about 3 weeks vs untreated controls. In outline: as §2
Test [12] deals with Stellaria media. The test is described as follows: Post-emergence herbicidal effect. The following applies: 320 g/ha, assessed visually after about 3 weeks vs untreated controls. In outline:
as §2

The test system of test [13] is Viola tricolor. As to the kind of experiment: Post-emergence herbicidal effect. The settings on record: assessed visually after about 3 weeks vs untreated controls. In outline: as §2
In test [14] the test system is Matricaria inodora. As to the kind of experiment: Post-emergence herbicidal effect. The settings on record: 320 g/ha, assessed visually after about 3 weeks vs untreated controls. In outline:
as §2

A further test deals with Alopecurus myosuroides. The test is described as follows: Post-emergence herbicidal effect. The settings on record: 320 g/ha, assessed visually after about 3 weeks vs untreated controls. A digest of the protocol: as §2
The test system of the next test is Lolium multiflorum. As to the kind of experiment: Post-emergence herbicidal effect. The following applies: 320 g/ha, assessed visually after about 3 weeks vs untreated controls. In outline:
as §2

A further test deals with Cyperus esculentus. As to the kind of experiment: Pre-emergence herbicidal effect. The following applies: Dosage 320 g/ha, scored visually after 3 weeks. In outline:
as §1

`Cc1cc2c(s1)CCCC2Nc1ncc2c(n1)CCCC2=O` (racemic) [compound 9]: the “SETVI pre-emergence efficacy (herbicidal activity)” value is reported as 80% in the test on Setaria viridis (Dosage 80 g/ha) and 100% with Setaria viridis (Dosage 320 g/ha). Also, the “ABUTH pre-emergence efficacy (herbicidal activity)” value with Abutilon theophrasti [1] (Dosage 80 g/ha) and in the test on Abutilon theophrasti [1] (Dosage 320 g/ha) was 100% in each case. For the same compound, the “AMARE pre-emergence efficacy (herbicidal activity)” value in the test with Amaranthus retroflexus [2] (Dosage 80 g/ha) and with Amaranthus retroflexus [2] (Dosage 320 g/ha) was 100% each time. Besides, the “VERPE pre-emergence efficacy (herbicidal activity)” value with Veronica persica [3] (Dosage 80 g/ha) and in the test on Veronica persica [3] (Dosage 320 g/ha) was 100% each time. In addition, the “POLCO pre-emergence efficacy (herbicidal activity)” value with Polygonum convolvulus (Dosage 80 g/ha) and with Polygonum convolvulus (Dosage 320 g/ha) was 100% in each case. For the same compound, the “ECHCG pre-emergence efficacy (herbicidal activity)” value with Echinochloa crus-galli [4] (Dosage 80 g/ha) and in the test with Echinochloa crus-galli [4] (Dosage 320 g/ha) was 100% in each case. The “STEME pre-emergence efficacy (herbicidal activity)” value in the test with Stellaria media [5] (Dosage 80 g/ha) and in the test on Stellaria media [5] (Dosage 320 g/ha) was 100% each time. Further, the “VIOTR pre-emergence efficacy (herbicidal activity)” value with Viola tricolor [6] (Dosage 80 g/ha) is recorded as 90%; in the test on Viola tricolor [6] (Dosage 320 g/ha), 100%. Moreover, the “MATIN pre-emergence efficacy (herbicidal activity)” value with Matricaria inodora [7] (Dosage 80 g/ha) and in the test on Matricaria inodora [7] (Dosage 320 g/ha) was 100% throughout. Besides, in the test with Abutilon theophrasti [8], the “post-emergence efficacy ABUTH” value is 80%. Besides, the “post-emergence efficacy AMARE” value in the test on Amaranthus retroflexus [9] (80 g/ha) is recorded as 80%; in the test on Amaranthus retroflexus [9] (320 g/ha) it was 90%. Moreover, the “post-emergence efficacy VERPE” value in the test with Veronica persica [10] (80 g/ha) was found to be 80%; in the test with Veronica persica [10] (320 g/ha), 90%. The “post-emergence efficacy ECHCG” value amounted to 80% in the test with Echinochloa crus-galli [11] (80 g/ha) and 100% with Echinochloa crus-galli [11] (320 g/ha). Further, the “post-emergence efficacy STEME” value with Stellaria media [12] was found to be 90%. Further, the “post-emergence efficacy VIOTR” value was found to be 80% with Viola tricolor [13] (80 g/ha) and 90% in the test with Viola tricolor [13] (320 g/ha). Also, the “post-emergence efficacy MATIN” value in the test with Matricaria inodora [14] worked out at 80%. In the test on Alopecurus myosuroides, the “post-emergence efficacy ALOMY” value was 80%. Further, the “post-emergence efficacy LOLMU” value in the test with Lolium multiflorum is given as 80%.

For the compound `CS(=O)(=O)c1cnc(NC2CCCc3occc32)nc1N` (racemic) [compound 13], the “AMARE pre-emergence efficacy (herbicidal activity)” value in the test with Amaranthus retroflexus [2] (Dosage 320 g/ha) is given as 100%. Further, in the test with Veronica persica [3] (Dosage 320 g/ha), the “VERPE pre-emergence efficacy (herbicidal activity)” value worked out at 90%. Moreover, in the test with Viola tricolor [6] (Dosage 320 g/ha), the “VIOTR pre-emergence efficacy (herbicidal activity)” value is on record as 100%. For the same compound, the “CYPES pre-emergence efficacy (herbicidal activity)” value in the test with Cyperus esculentus came out at 100%. The “MATIN pre-emergence efficacy (herbicidal activity)” value with Matricaria inodora [7] (Dosage 320 g/ha) came to 100%. Moreover, in the test on Veronica persica [10] (320 g/ha), the “post-emergence efficacy VERPE” value worked out at 90%. The “post-emergence efficacy STEME” value in the test with Stellaria media [12] is given as 80%. In addition, the “post-emergence efficacy VIOTR” value in the test with Viola tricolor [13] (320 g/ha) stood at 100%.
